Laboratory results taken from the NIST ThermoML archive (doi:10.1016/j.jct.2007.01.010).

How the values were obtained:
[1] = xn = mol fraction of the nth substance listed; settings: 101 kPa, Liquid
[2] = 101 kPa, Liquid

CCOCCO [2-ethoxyethan-1-ol] + CCOC(C)(C)C
[1], x2 = 0
Settings | viscosity [mPa·s]
293.15 K | 2.142
298.15 K | 1.848
303.15 K | 1.646

CCOC(C)(C)C [2-ethoxy-2-methylpropane] + CCOCCOCCO
[1], x1 = 1
Settings | viscosity [mPa·s]
293.15 K | 0.532
298.15 K | 0.504
303.15 K | 0.478

CCOC(C)(C)C [2-ethoxy-2-methylpropane]
[2]
Settings | viscosity [mPa·s]
293.15 K | 0.532
298.15 K | 0.504
303.15 K | 0.478

CCOC(C)(C)C [2-ethoxy-2-methylpropane] + CCOCCO
viscosity [mPa·s], [1]
Settings | 293.15 K | 298.15 K | 303.15 K
x1 = 0.05 | 1.943 | 1.691 | 1.515
x1 = 0.1001 | 1.766 | 1.547 | 1.394
x1 = 0.1489 | 1.619 | 1.424 | 1.286
x1 = 0.2002 | 1.476 | 1.306 | 1.184
x1 = 0.2511 | 1.35 | 1.203 | 1.094
x1 = 0.2999 | 1.242 | 1.113 | 1.017
x1 = 0.3486 | 1.146 | 1.031 | 0.947
x1 = 0.4 | 1.057 | 0.955 | 0.879
x1 = 0.4511 | 0.977 | 0.887 | 0.82
x1 = 0.5 | 0.908 | 0.829 | 0.769
x1 = 0.5502 | 0.845 | 0.775 | 0.721
x1 = 0.5999 | 0.791 | 0.729 | 0.679
x1 = 0.652 | 0.74 | 0.685 | 0.64
x1 = 0.6999 | 0.699 | 0.649 | 0.608
x1 = 0.7499 | 0.66 | 0.616 | 0.578
x1 = 0.8 | 0.626 | 0.586 | 0.552
x1 = 0.8505 | 0.597 | 0.56 | 0.528
x1 = 0.9 | 0.571 | 0.538 | 0.508
x1 = 0.9499 | 0.549 | 0.519 | 0.492
x1 = 1 | 0.532 | 0.504 | 0.478

CCOCCOCCOCCO [2-(2-(2-ethoxyethoxy)ethoxy)ethanol]
[2]
Settings | viscosity [mPa·s]
293.15 K | 8.087
298.15 K | 7.049
303.15 K | 6.421
